Laboratory results taken from ChEMBL document CHEMBL6109077, “Design, synthesis and in vitro validation of bivalent binders of SARS-CoV-2 spike protein: Obeticholic, betulinic and glycyrrhetinic acids as building blocks” (Bioorg Med Chem, 2025).
The source made the active and inactive calls. The calls are words filed in the database; no cut-off is given here.

Legend:
293T/ACE2 [1] = test: Inhibition of spike protein D614G mutant in pseudotyped SARS-CoV-2 infected in 293T/ACE2 cells assessed as reduction in viral entry at 10 uM preincubated with virus for 1 hr followed by cell infection and measured after 48 hrs by bright-glo luciferase reporter gene assay; assay type: cell-based; conditions: Severe acute respiratory syndrome coronavirus 2, time 49.0 hrs
293T/ACE2 [2] = test: Inhibition of spike protein Omicron BA.2 mutant in pseudotyped SARS-CoV-2 infected in 293T/ACE2 cells assessed as reduction in viral entry at 10 uM preincubated with virus for 1 hr followed by cell infection and measured after 48 hrs by bright-glo luciferase reporter gene assay; assay type: cell-based; conditions: Severe acute respiratory syndrome coronavirus 2, time 49.0 hrs

C=C(C)[C@@H]1CC[C@]2(C(=O)OC)CC[C@]3(C)[C@H](CC[C@@H]4[C@@]5(C)CC[C@H](OC(=O)CCCNC(=O)CC[C@@H](C)[C@H]6CC[C@H]7[C@@H]8[C@H](O)[C@H](CC)[C@@H]9C[C@H](O)CC[C@]9(C)[C@H]8CC[C@]67C)C(C)(C)[C@@H]5CC[C@]43C)[C@@H]12
inhibition (293T/ACE2 [1]): Active; Statistically Significant Effect Observed | inhibition (293T/ACE2 [2]): Active; Statistically Significant Effect Observed

CC1(C)[C@@H](O)CC[C@]2(C)[C@H]3C(=O)C=C4[C@@H]5C[C@@](C)(C(=O)O)CC[C@]5(C)CC[C@@]4(C)[C@]3(C)CC[C@@H]12
inhibition (293T/ACE2 [1]): Not active; No Statistically Significant Decrease Observed | inhibition (293T/ACE2 [2]): Not active; No Statistically Significant Decrease Observed

C=C(C)[C@@H]1CC[C@]2(C(=O)O)CC[C@]3(C)[C@H](CC[C@@H]4[C@@]5(C)CC[C@H](O)C(C)(C)[C@@H]5CC[C@]43C)[C@@H]12
inhibition (293T/ACE2 [1]): Not active; No Statistically Significant Decrease Observed | inhibition (293T/ACE2 [2]): Not active; No Statistically Significant Decrease Observed

C=C(C)[C@@H]1CC[C@]2(C(=O)OC)CC[C@@]3(C)[C@@H]4CC[C@@H]5[C@H](CC[C@H](OC(=O)CCCCc6cn(CCCCCCNC(=O)CC[C@@H](C)[C@H]7CC[C@H]8[C@@H]9[C@H](O)[C@H](CC)[C@@H]%10C[C@H](O)CC[C@]%10(C)[C@H]9CC[C@]78C)nn6)C5(C)C)[C@H]4CC[C@@H]3[C@@H]12
inhibition (293T/ACE2 [1]): inactive | inhibition (293T/ACE2 [2]): Active; Significant Effect Observed

CC[C@H]1[C@@H](O)[C@@H]2[C@H](CC[C@]3(C)[C@@H]([C@H](C)CCC(=O)NCCCCCCn4cc(CCCCC(=O)O[C@H]5CC[C@H]6[C@@H](CC[C@]7(C)[C@@H]6C(=O)C=C6[C@@H]8C[C@@](C)(C(=O)OC)CC[C@]8(C)CC[C@]67C)C5(C)C)nn4)CC[C@@H]23)[C@@]2(C)CC[C@@H](O)C[C@@H]12
inhibition (293T/ACE2 [1]): inactive | inhibition (293T/ACE2 [2]): inactive

CC[C@H]1[C@@H](O)[C@@H]2[C@H](CC[C@]3(C)[C@@H]([C@H](C)CCC(=O)O)CC[C@@H]23)[C@@]2(C)CC[C@@H](O)C[C@@H]12
inhibition (293T/ACE2 [1]): Not active; No Statistically Significant Decrease Observed | inhibition (293T/ACE2 [2]): Not active; No Statistically Significant Decrease Observed

C=C(C)[C@@H]1CC[C@]2(C(=O)OC)CC[C@]3(C)[C@H](CC[C@@H]4[C@@]5(C)CC[C@H](OC(=O)CCCCCCCCNC(=O)CC[C@@H](C)[C@H]6CC[C@H]7[C@@H]8[C@H](O)[C@H](CC)[C@@H]9C[C@H](O)CC[C@]9(C)[C@H]8CC[C@]67C)C(C)(C)[C@@H]5CC[C@]43C)[C@@H]12
inhibition (293T/ACE2 [1]): Active; Statistically Significant Effect Observed | inhibition (293T/ACE2 [2]): Active; Statistically Significant Effect Observed
